Assay results taken from patent US6716625B1, “Histidine kinases of Aspergillus and other fungal species, related compositions, and methods of use” (priority 1997, dated 2004).
*1 amine or outer side, *2 acyl side, *3 side chain or, on linkers, in order; H or OH if unused. Where a SMILES comes first, the peptide text is derived from it. Bridges are numbered along the chain shown (N, C = ends). [ ]: non-standard residue; d: D form. The star is where a group is joined. Orn(4R-OH,5R-OH) = O=C([C@H](C[C@@H](O)[C@@H](O)N[*:3])N[*:1])[*:2]; hTyr(3S-OH,4S-OH) = N[C@H](C(=O)O)[C@H](O)[C@@H](O)c1ccc(O)cc1; Pro(3S-OH,4S-Me) = C[C@H]1CN[C@H](C(=O)O)[C@H]1O; Benzoyl(4-octyloxy) = CCCCCCCCOc1ccc(C(=O)*)cc1; Hyp = O=C(O)[C@@H]1C[C@@H](O)CN1

Key:
[1] = test system: A. fumigatus wild-type and ΔFOS-1 strains; test: Sensitivity to antifungals, variation of NCCLS M27T-protocol (microtiter broth); assay type: cell-based, Aspergillus fumigatus; details: 1×RPMI medium, 48 hours, 37° C., 96-well plates
Protocol: Sensitivity to antifungals: To assess the differential sensitivities of the wild-type and ΔFOS-1 strains to a number of antifungal compounds, the minimum inhibitor concentration of amphotericin B, nikkomycin Z, benomyl, miconazole, ketoconazole, fluconazole, cilofungin, 5-fluorocytosine and calcofluor white M2R new against the wild-type and ΔFOS-1 strains was determined. This fungal sensitivity was determined using a variation of the National Committee for Clinical Laboratory Standards (NCCLS) M27T-protocol (Galgiani et al., NCCLS, 15:1-29 [1995]). Briefly, serial dilutions of the anti-fungal drugs were made in 100 μl 1×RPMI medium (Life Technologies) and an additional 100 μl 1×RPMI medium containing 2×10^4 conidia/ml of each strain was added to each well of 96-well microtiter plates. Plates were incubated for 48 hours with gentle shaking at 37° C. The amount of growth in each well was estimated using a inverted phase microscope.

[2] = test system: C. albicans wild-type, ΔCOS-1/ΔCOS-1, hemizygous and reconstituted strains; test: Sensitivity of C. albicans COS-1 strains to antifungal drugs in liquid RPMI medium (NCCLS M27-T); assay type: cell-based, Candida albicans
Protocol: For determination of viability and growth, each strain tested was grown from −80° C. stocks overnight at 37° C. in 50 ml of Sabouraud dextrose broth (30 g/L) (Difco, Catalog Number 0382-17-9) in 250 ml flasks with shaking at 180 rpm. Three hundred milliliter Nephelo flasks (Bellco) containing 60 ml medium were inoculated with 1×10^6 cells/ml (final concentration) from the starter culture and incubated at 37° C. with orbital shaking at 180 rpm. The optical density of each culture was determined periodically using a Klett-Summerson Photoelectric Colorimeter (Klett). For cell viability determination, overnight cultures were diluted and known numbers (as determined by hemacytometer counts) were plated onto agar-solidified SD medium and the numbers of resulting colonies determined. The sensitivity of each strain to a number of antifungal drugs in liquid medium was performed essentially as described in the National Committee for Clinical Laboratory Standards (NCCLS) 27T-protocol (Galgiani et al., NCCLS, 15:1-29 [1995]).

[3] = test system: A. fumigatus wild-type and ΔFOS-1 strains; test: Effect of oxidative stress compounds on hyphal growth; assay type: cell-based, Aspergillus fumigatus; details: agar-solidified MPG medium; diamide 0-2 mM or menadione 0-0.06 mM; 37° C., 3 days
Protocol: Effect of oxidative stress compounds: To determine the effect of various oxidative stress-inducing compounds on hyphal growth in the wild-type and ΔFOS-1 strains, 2 μl water containing 1×10^3 conidia were placed as single spots onto 150 mm×15 mm petri plates containing 30 ml agar-solidified MPG medium. In addition, these agar plates contained either diamide (0-2 mM; Sigma) (an SH residue oxidant that attacks surface proteins; de Souza Pereira and Geibel, J. Mol. Cell Biochem., 201:17-24 [1999]), or menadione (0-0.06 mM; Sigma Aldrich) (a superoxide generator; Caricchio et al., Clin. Immunol., 93:65-74 [1999]). These plates were incubated at 37° C. for 3 days. Hyphal growth/extension rates were determined by recording the distance traveled by hyphal fronts after various times of incubation.

[4] = test system: A. fumigatus wild-type strain; test: Dicarboximide drug sensitivity: hyphal extension on agar-solidified MPG medium, wild-type strain; assay type: cell-based, Aspergillus fumigatus; details: mean ± standard deviation of at least 12 data points
Protocol: (§1) Although an understanding of the mechanism is not necessary in order to use the present invention, resistance to dicarboximide antifungals by a number of fungi appears to involve a histidine kinase mutation. […] To test if the ΔFOS-1 strain was also resistant to vinclozolin, iprodione and procymidone, the growth of wild-type and ΔFOS-1 strains on medium containing each drug was examined. Briefly, wild-type and ΔFOS-1 conidia (1×10^3 in 2 μl) were inoculated onto agar-solidified MPG medium containing 10 μg/ml vinclozolin or iprodione, or 12 μg/ml procymidone. Hyphal extension rates in mm/hr were recorded, and a mean determined based on at least 12 individual data points. Results are shown±standard deviation. P values were calculated using the Students t test (http://nimitz.mcs.kent.edu/˜blewis/stat/tTest.html).

[5] = test system: A. fumigatus ΔFOS-1 strain; test: Dicarboximide drug sensitivity: hyphal extension on agar-solidified MPG medium, ΔFOS-1 strain; assay type: cell-based, Aspergillus fumigatus; details: mean ± standard deviation of at least 12 data points
Protocol: as §1

[6] = test system: OS-1 mutant strains of N. crassa; details: Beever 1983; cited from earlier work
[7] = 10 μg/ml drug in agar-solidified MPG medium
[8] = 12 μg/ml drug in agar-solidified MPG medium

| SMILES | Difference in minimum inhibitor concentration between wild-type and ΔFOS-1 strains [1] | Relative sensitivity of wild-type, ΔCOS-1/ΔCOS-1, hemizygous and reconstituted strains [2] | other results |
| --- | --- | --- | --- |
| Nc1nc(=O)[nH]cc1F [5-fluorocytosine] | No differences in minimum inhibitor concentration | equally sensitive | – |
| C[C@@H]1[C@H](O)[C@@H](C)/C=C/C=C/C=C/C=C/C=C/C=C/C=C/[C@H](O[C@@H]2O[C@H](C)[C@@H](O)[C@H](N)[C@@H]2O)C[C@@H]2O[C@](O)(C[C@@H](O)C[C@@H](O)[C@H](O)CC[C@@H](O)C[C@@H](O)CC(=O)O[C@H]1C)C[C@H](O)[C@H]2C(=O)O [amphotericin B] | No differences in minimum inhibitor concentration | equally sensitive | – |
| CCCCNC(=O)n1c(NC(=O)OC)nc2ccccc21 [benomyl] | No differences in minimum inhibitor concentration | equally sensitive | – |
| O=S(=O)([O-])c1cc(Nc2nc(Nc3ccccc3)nc(N(CCO)CCO)n2)ccc1/C=C/c1ccc(Nc2nc(Nc3ccccc3)nc(N(CCO)CCO)n2)cc1S(=O)(=O)[O-].[Na+].[Na+] [calcofluor white M2R new] | No differences in minimum inhibitor concentration | – | – |
| CCCCCCCCOc1ccc(C(=O)N[C@H]2C[C@@H](O)[C@@H](O)NC(=O)[C@@H]3[C@@H](O)[C@@H](C)CN3C(=O)[C@H]([C@@H](C)O)NC(=O)[C@H]([C@H](O)[C@@H](O)c3ccc(O)cc3)NC(=O)[C@@H]3C[C@@H](O)CN3C(=O)[C@H]([C@@H](C)O)NC2=O)cc1 [cilofungin] ({Benzoyl(4-octyloxy)}-[Orn(4R-OH,5R-OH)]T[Hyp][hTyr(3S-OH,4S-OH)]T[Pro(3S-OH,4S-Me)]; lactam 1-C) | No differences in minimum inhibitor concentration | equally sensitive | – |
| CN(C)C(=O)/N=N/C(=O)N(C)C [diamide] | – | – | Difference in hyphal growth/extension rates between wild-type and ΔFOS-1 strains [3]: No differences in hyphal growth/extension rates |
| OC(Cn1cncn1)(Cn1cncn1)c1ccc(F)cc1F [fluconazole] | No differences in minimum inhibitor concentration | equally sensitive | – |
| CC(C)NC(=O)N1CC(=O)N(c2cc(Cl)cc(Cl)c2)C1=O [iprodione] | – | – | Hyphal extension rate, wild-type [4, 7]: 0.29 ± 0.11 mm/hr; Hyphal extension rate, ΔFOS-1 [5, 7]: 0.52 ± 0.03 mm/hr |
| CC(=O)N1CCN(c2ccc(OCC3COC(Cn4ccnc4)(c4ccc(Cl)cc4Cl)O3)cc2)CC1 (stereo not drawn) [ketoconazole] | No differences in minimum inhibitor concentration | equally sensitive | – |
| CC1=CC(=O)c2ccccc2C1=O [menadione] | – | – | Difference in hyphal growth/extension rates between wild-type and ΔFOS-1 strains [3]: No differences in hyphal growth/extension rates |
| Clc1ccc(COC(Cn2ccnc2)c2ccc(Cl)cc2Cl)c(Cl)c1 (stereo not drawn) [miconazole] | No differences in minimum inhibitor concentration | equally sensitive | – |
| C[C@@H]([C@H](N)C(=O)N[C@H](C(=O)O)[C@H]1O[C@@H](n2ccc(=O)[nH]c2=O)[C@H](O)[C@@H]1O)[C@H](O)c1ccc(O)cn1 [nikkomycin Z] | No differences in minimum inhibitor concentration | equally sensitive | – |
| CC12CC1(C)C(=O)N(c1cc(Cl)cc(Cl)c1)C2=O (stereo not drawn) [procymidone] | – | – | Hyphal extension rate, wild-type [4, 8]: 0.21 ± 0.13 mm/hr; Hyphal extension rate, ΔFOS-1 [5, 8]: 0.48 ± 0.08 mm/hr |
| C=CC1(C)OC(=O)N(c2cc(Cl)cc(Cl)c2)C1=O (stereo not drawn) [vinclozolin] | – | equally sensitive | Hyphal extension rate, wild-type [4, 7]: 0.34 ± 0.11 mm/hr; Hyphal extension rate, ΔFOS-1 [5, 7]: 0.50 ± 0.05 mm/hr; Resistance of OS-1 mutant strains [6]: highly resistant |
